Results reported in US20250382305A1 (PTC THERAPEUTICS, INC., priority 2022, published 2025).

Key:
[1] = test system: Total ATXN3 (tATXN3) protein; assay: Endogenous Total ATXN3 (tATXN3) Protein Assay (MSD immunoassay of cell lysates); assay type: cell-based; conditions: average IC50, total ATXN3 protein in cell lysate after 48 h with compound (Table 1)
Procedure, shortened: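 Cells in DMEM/10% FBS were plated at 10,000 per well onto 7-point, 3.16-fold compound dilutions in duplicate for 48 h at 37° C, then lysed. Total ATXN3 in lysates was measured by MSD sandwich immunoassay: mouse anti-ATXN3 capture, rabbit anti-ATXN3 detection, SULFO-TAG anti-rabbit. Average IC50 was reported in star bins.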

[2] = test system: ATXN3 pre-mRNA; assay: RT-qPCR Assay to Quantify Exon 4 Skipping in ATXN3 pre-mRNA in Cells; assay type: cell-based; conditions: percent exon 4 skipping in ATXN3 pre-mRNA, RT-qPCR of cell lysates; average IC50
Procedure, shortened: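 Cells plated at 10,000/well onto a 7-point, 3.16-fold DMSO dilution series (duplicates), incubated 24 h at 37 °C, then lysed. Exon 4 skipping measured by one-step RT-qPCR (48 °C RT, 40 cycles); IC50 interpolated from dose-response fit of percent skipping.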

Compound | IC50 [1] | IC50 [2]
NC1CCCOC1c1sc2c(NCc3ccccc3F)cc(Cl)nc2c1Cl (mixture of isomers) [Compound 24, 2-((2R,3R)-3-aminotetrahydro-2H-pyran-2-yl)-3,5-dichloro-N-(2-fluorobenzyl)thieno[3,2-b]pyridin-7-amine and 2-((2S,3S)-3-aminotetrahydro-2H-pyran-2-yl)-3,5-dichloro-N-(2-fluorobenzyl)thieno[3,2-b]pyridin-7-amine] | 30 to 300 nM | 30 to 300 nM
N[C@@H]1CCCO[C@H]1c1sc2c(NCc3ccccc3F)cc(Cl)nc2c1Br.N[C@H]1CCCO[C@@H]1c1sc2c(NCc3ccccc3F)cc(Cl)nc2c1Br (mixture of isomers) [Compound 29, 2-((2R,3R)-3-aminotetrahydro-2H-pyran-2-yl)-3-bromo-5-chloro-N-(2-fluorobenzyl)thieno[3,2-b]pyridin-7-amine and 2-((2S,3S)-3-aminotetrahydro-2H-pyran-2-yl)-3-bromo-5-chloro-N-(2-fluorobenzyl)thieno[3,2-b]pyridin-7-amine] | 30 to 300 nM | 30 to 300 nM
N[C@@H]1CC(F)(F)CC[C@@H]1c1sc2c(NCc3cccs3)cc(Cl)nc2c1Br.N[C@H]1CC(F)(F)CC[C@H]1c1sc2c(NCc3cccs3)cc(Cl)nc2c1Br (mixture of isomers) [Compound 30, 2-((1R,2S)-2-amino-4,4-difluorocyclohexyl)-3-bromo-5-chloro-N-(thiophen-2-ylmethyl)thieno[3,2-b]pyridin-7-amine and 2-((1S,2R)-2-amino-4,4-difluorocyclohexyl)-3-bromo-5-chloro-N-(thiophen-2-ylmethyl)thieno[3,2-b]pyridin-7-amine] | > 1000 nM | > 1000 nM
N[C@@H]1CCCN[C@H]1c1sc2c(NCc3cccs3)cc(Cl)nc2c1Br.N[C@H]1CCCN[C@@H]1c1sc2c(NCc3cccs3)cc(Cl)nc2c1Br (mixture of isomers) [Compound 47, 2-((2R,3R)-3-aminopiperidin-2-yl)-3-bromo-5-chloro-N-(thiophen-2-ylmethyl)thieno[3,2-b]pyridin-7-amine and 2-((2S,3S)-3-aminopiperidin-2-yl)-3-bromo-5-chloro-N-(thiophen-2-ylmethyl)thieno[3,2-b]pyridin-7-amine] | > 1000 nM | 300 to 1000 nM
N[C@H]1CCCN(c2ccccc2)[C@@H]1c1sc2c(NCc3cccs3)cc(Cl)nc2c1Br (mixture of isomers) [Compound 124, 2-((2R,3R)-3-amino-1-phenylpiperidin-2-yl)-3-bromo-5-chloro-N-(thiophen-2-ylmethyl)thieno[3,2-b]pyridin-7-amine and 2-((2S,3S)-3-amino-1-phenylpiperidin-2-yl)-3-bromo-5-chloro-N-(thiophen-2-ylmethyl)thieno[3,2-b]pyridin-7-amine] | > 1000 nM | > 1000 nM
N[C@@H]1[C@@H](O)C=CC[C@H]1c1sc2c(NCc3cccs3)cc(Cl)nc2c1Cl.N[C@H]1[C@H](O)C=CC[C@@H]1c1sc2c(NCc3cccs3)cc(Cl)nc2c1Cl (mixture of isomers) [Compound 127, (1R,5S,6R)-6-amino-5-(3,5-dichloro-7-((thiophen-2-ylmethyl)amino)thieno[3,2-b]pyridin-2-yl)cyclohex-2-en-1-ol and (1S,5R,6S)-6-amino-5-(3,5-dichloro-7-((thiophen-2-ylmethyl)amino)thieno[3,2-b]pyridin-2-yl)cyclohex-2-en-1-ol] | 30 to 300 nM | 30 to 300 nM
N[C@@H]1CCNCC[C@H]1c1sc2c(NCc3cccs3)cc(Cl)nc2c1Br.N[C@H]1CCNCC[C@@H]1c1sc2c(NCc3cccs3)cc(Cl)nc2c1Br (mixture of isomers) [Compound 147, 2-((4R,5R)-5-aminoazepan-4-yl)-3-bromo-5-chloro-N-(thiophen-2-ylmethyl)thieno[3,2-b]pyridin-7-amine and 2-((4S,5S)-5-aminoazepan-4-yl)-3-bromo-5-chloro-N-(thiophen-2-ylmethyl)thieno[3,2-b]pyridin-7-amine] | > 1000 nM | > 1000 nM
N[C@@H]1CC=CC[C@H]1c1sc2c(NCc3cccs3)cc(Cl)nc2c1C#CCCCO.N[C@H]1CC=CC[C@@H]1c1sc2c(NCc3cccs3)cc(Cl)nc2c1C#CCCCO (mixture of isomers) [Compound 175, 5-(2-((1R,6R)-6-aminocyclohex-3-en-1-yl)-5-chloro-7-((thiophen-2-ylmethyl)amino)thieno[3,2-b]pyridin-3-yl)pent-4-yn-1-ol and 5-(2-((1S,6S)-6-aminocyclohex-3-en-1-yl)-5-chloro-7-((thiophen-2-ylmethyl)amino)thieno[3,2-b]pyridin-3-yl)pent-4-yn-1-ol] | ≤ 30 nM | ≤ 30 nM
CC#Cc1c(C2[C@@H](N)CCCC2(F)F)sc2c(NCc3cccs3)cc(Cl)nc12.CC#Cc1c(C2[C@H](N)CCCC2(F)F)sc2c(NCc3cccs3)cc(Cl)nc12 (mixture of isomers) [Compound 208, 2-((6R)-6-amino-2,2-difluorocyclohexyl)-5-chloro-3-(prop-1-yn-1-yl)-N-(thiophen-2-ylmethyl)thieno[3,2-b]pyridin-7-amine and 2-((6S)-6-amino-2,2-difluorocyclohexyl)-5-chloro-3-(prop-1-yn-1-yl)-N-(thiophen-2-ylmethyl)thieno[3,2-b]pyridin-7-amine] | ≤ 30 nM | ≤ 30 nM
N[C@@H]1CC=CC[C@H]1c1sc2c(NCc3cccs3)cc(Cl)nc2c1I.N[C@H]1CC=CC[C@@H]1c1sc2c(NCc3cccs3)cc(Cl)nc2c1I (mixture of isomers) [Compound 209, 2-((1R,6R)-6-aminocyclohex-3-en-1-yl)-5-chloro-3-iodo-N-(thiophen-2-ylmethyl)thieno[3,2-b]pyridin-7-amine and 2-((1S,6S)-6-aminocyclohex-3-en-1-yl)-5-chloro-3-iodo-N-(thiophen-2-ylmethyl)thieno[3,2-b]pyridin-7-amine] | ≤ 30 nM | ≤ 30 nM
N[C@@H]1CCCO[C@H]1c1sc2c(NCc3cccs3)cc(Cl)nc2c1C#CCCO.N[C@H]1CCCO[C@@H]1c1sc2c(NCc3cccs3)cc(Cl)nc2c1C#CCCO (mixture of isomers) [Compound 213, 4-(2-((2R,3R)-3-aminotetrahydro-2H-pyran-2-yl)-5-chloro-7-((thiophen-2-ylmethyl)amino)thieno[3,2-b]pyridin-3-yl)but-3-yn-1-ol and 4-(2-((2S,3S)-3-aminotetrahydro-2H-pyran-2-yl)-5-chloro-7-((thiophen-2-ylmethyl)amino)thieno[3,2-b]pyridin-3-yl)but-3-yn-1-ol] | ≤ 30 nM | ≤ 30 nM
N[C@@H]1CC=CC[C@H]1c1sc2c(NCc3cccs3)nc(Cl)nc2c1Cl.N[C@H]1CC=CC[C@@H]1c1sc2c(NCc3cccs3)nc(Cl)nc2c1Cl (mixture of isomers) [Compound 240, 6-((1R,6R)-6-aminocyclohex-3-en-1-yl)-2,7-dichloro-N-(thiophen-2-ylmethyl)thieno[3,2-d]pyrimidin-4-amine and 6-((1S,6S)-6-aminocyclohex-3-en-1-yl)-2,7-dichloro-N-(thiophen-2-ylmethyl)thieno[3,2-d]pyrimidin-4-amine] | ≤ 30 nM | ≤ 30 nM
N[C@H]1CCCO[C@@H]1c1sc2c(NCc3cccs3)cc(Cl)nc2c1C#CCO (mixture of isomers) [Compound 252, 3-(2-((2R,3R)-3-aminotetrahydro-2H-pyran-2-yl)-5-chloro-7-((thiophen-2-ylmethyl)amino)thieno[3,2-b]pyridin-3-yl)prop-2-yn-1-ol and 3-(2-((2S,3S)-3-aminotetrahydro-2H-pyran-2-yl)-5-chloro-7-((thiophen-2-ylmethyl)amino)thieno[3,2-b]pyridin-3-yl)prop-2-yn-1-ol] | 30 to 300 nM | ≤ 30 nM
N[C@@H]1CCCO[C@H]1c1sc2c(NCc3ccco3)nc(Cl)nc2c1C#CCO.N[C@H]1CCCO[C@@H]1c1sc2c(NCc3ccco3)nc(Cl)nc2c1C#CCO (mixture of isomers) [Compound 255, 3-(6-((2R,3R)-3-aminotetrahydro-2H-pyran-2-yl)-2-chloro-4-((furan-2-ylmethyl)amino)thieno[3,2-d]pyrimidin-7-yl)prop-2-yn-1-ol and 3-(6-((2S,3S)-3-aminotetrahydro-2H-pyran-2-yl)-2-chloro-4-((furan-2-ylmethyl)amino)thieno[3,2-d]pyrimidin-7-yl)prop-2-yn-1-ol] | 30 to 300 nM | ≤ 30 nM
N[C@@H]1CCCC[C@H]1c1sc2c(NCc3cccs3)cc(Cl)nc2c1COC(F)F.N[C@H]1CCCC[C@@H]1c1sc2c(NCc3cccs3)cc(Cl)nc2c1COC(F)F (mixture of isomers) [Compound 257, 2-((1S,2S)-2-aminocyclohexyl)-5-chloro-3-((difluoromethoxy)methyl)-N-(thiophen-2-ylmethyl)thieno[3,2-b]pyridin-7-amine and 2-((1R,2R)-2-aminocyclohexyl)-5-chloro-3-((difluoromethoxy)methyl)-N-(thiophen-2-ylmethyl)thieno[3,2-b]pyridin-7-amine] | 30 to 300 nM | ≤ 30 nM
N[C@@H]1COCC[C@H]1c1sc2c(NCc3cccs3)cc(Cl)nc2c1Cl.N[C@H]1COCC[C@@H]1c1sc2c(NCc3cccs3)cc(Cl)nc2c1Cl (mixture of isomers) [Compound 272, 2-((3R,4S)-3-aminotetrahydro-2H-pyran-4-yl)-3,5-dichloro-N-(thiophen-2-ylmethyl)thieno[3,2-b]pyridin-7-amine and 2-((3S,4R)-3-aminotetrahydro-2H-pyran-4-yl)-3,5-dichloro-N-(thiophen-2-ylmethyl)thieno[3,2-b]pyridin-7-amine] | 30 to 300 nM | 30 to 300 nM
